Source: article PMC5050145 (European journal of nuclear medicine and molecular imaging, 2016)
“And” between values parts separate entries of the source, which are not always exact repeats. Equal values may be shown once.

Legend:
[1] = In-vitro stability in mouse blood plasma; format: in vitro ADME; conditions: 2 h, 37 °C
[2] = Biodistribution by microPET/CT imaging in C57BL6 mice; format: in vivo; conditions: 1 h post-injection, microPET
[3] = Stability of the final product in formulation; format: physicochemical; conditions: 3 h; buffered solution at pH 6.8
[4] = In-vitro stability in human blood plasma; format: in vitro ADME; conditions: 2 h, 37 °C
[5] = Dosimetry: mouse microPET biodistribution extrapolated to humans; format: in vivo, C57BL6 mice; conditions: for effective dose: administered activity of 200 MBq
LNCaP cells = conditions: complexed to natGa; cited from earlier work
PSMA = conditions: read-out: Ki value towards PSMA; complexed to natGa; cell-based assay; cited from earlier work

| SMILES | intact compound [1] | tissue uptake, bladder [2] | tissue uptake, kidneys [2] | radiochemical purity in stability test [3] | intact compound [4] | Mean RT (time-integrated activity coefficient) scaled to humans ([5]; Bone, Method 1) | Mean RT (time-integrated activity coefficient) scaled to humans ([5]; Bone, Method 2) | mean extrapolated effective dose per unit activity ([5]; Method 1) | effective dose ([5]; Method 1) | effective dose ([5]; Method 2) | maximum administered human activity limit ([5]; Method 2, kidneys dose-limiting, 21CFR361.1) | Mean RT (time-integrated activity coefficient) scaled to humans ([5]; Muscle, Method 2) | Mean RT (time-integrated activity coefficient) scaled to humans ([5]; Tot. Kidney, Method 1) | Mean RT (time-integrated activity coefficient) scaled to humans ([5]; Tot. Kidney, Method 2) | feasible injected activities ([5]; most stringent dosimetric calculations) | mean extrapolated effective dose per unit activity ([5]; second value, printed Method 1) | uptake in PSMA-positive LNCaP cells (LNCaP cells) | Ki (PSMA) |
| --- | --- | --- | --- | --- | --- | --- | --- | --- | --- | --- | --- | --- | --- | --- | --- | --- | --- | --- |
| O=C([O-])CN(CCN(CC(=O)[O-])Cc1cc(CCC(=O)NCCCCCC(=O)NCCCC[C@H](NC(=O)N[C@@H](CCC(=O)O)C(=O)O)C(=O)O)ccc1O)Cc1cc(CCC(=O)O)ccc1O.[18F-].[Al+3] [18F-PSMA-11] | 91% | 77.4 ± 39.1 %ID/g | 119.3 ± 16.5 %ID/g | > 97% | 94% | 0.045 ± 0.013 h | 0.114 ± 0.028 h | 8.59 × 10^−3 ± 7.46 × 10^−4 mSv/MBq | 1.72 mSv and 1.7 mSv | 1.25 mSv | 1,742 MBq | 0.077 ± 0.018 h | 0.141 ± 0.033 h | 0.042 ± 0.009 h | up to 0.56 GBq | 6.23 × 10^−3 ± 5.74 × 10^−4 mSv/MBq | – | – |
| O=C(O)CCc1ccc(O)c(CN(CCN(CC(=O)O)Cc2cc(CCC(=O)NCCCCCC(=O)NCCCC[C@H](NC(=O)N[C@@H](CCC(=O)O)C(=O)O)C(=O)O)ccc2O)CC(=O)O)c1 [PSMA-11, Glu-urea-Lys (Ahx)-HBED-CC] | – | – | – | – | – | – | – | – | – | – | – | – | – | – | – | – | readily taken up | 0.012 ± 0.0028 µM |
